Measured values: ChEMBL document CHEMBL1201862, “PubChem BioAssay data set” (2004)
Blank lines part the entries; values can stand above or below the compound they belong to. Active and inactive are the calls of the source.

Legend:
[1] = target: Intestinal-type alkaline phosphatase (Homo sapiens, UniProt P09923); experiment: human intestinal alkaline phosphatase activators, dose response, biochemical, luminescence, uHTS hits (AID 463120); format: functional
[2] = target: T1, Mu-type opioid receptor (Homo sapiens, UniProt P35372); experiment: mu opioid receptor activators, image-based, SAR follow-up (AID 2352); format: functional
T1 sequence (P35372 whole entry): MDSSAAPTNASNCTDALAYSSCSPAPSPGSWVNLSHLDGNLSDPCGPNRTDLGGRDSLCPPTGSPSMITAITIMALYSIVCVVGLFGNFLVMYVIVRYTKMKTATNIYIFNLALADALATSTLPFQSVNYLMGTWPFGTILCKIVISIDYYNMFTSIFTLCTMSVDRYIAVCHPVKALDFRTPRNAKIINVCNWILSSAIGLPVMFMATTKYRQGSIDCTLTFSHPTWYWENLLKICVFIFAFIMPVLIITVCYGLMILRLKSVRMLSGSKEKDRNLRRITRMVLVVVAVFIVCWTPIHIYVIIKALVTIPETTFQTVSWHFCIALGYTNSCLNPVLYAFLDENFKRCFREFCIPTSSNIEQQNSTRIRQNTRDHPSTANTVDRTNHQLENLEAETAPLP

[3] = target: Dual specificity protein phosphatase 3 (Homo sapiens, UniProt P51452); experiment: SAR VHR1 Fluorescent Assay for In Vitro dose response studies Set 2. [Related pubchem assays (depositor defined):AID1654, AID1661, AID1878]; format: functional
Chain of Dual specificity protein phosphatase 3 (P51452 whole entry): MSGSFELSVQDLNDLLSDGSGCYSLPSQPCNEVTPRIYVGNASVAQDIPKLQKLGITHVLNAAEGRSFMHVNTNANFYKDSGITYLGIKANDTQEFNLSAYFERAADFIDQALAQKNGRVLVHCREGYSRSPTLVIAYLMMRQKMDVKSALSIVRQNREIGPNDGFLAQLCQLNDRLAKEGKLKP

[4] = target: T2, Kappa-type opioid receptor (Homo sapiens, UniProt P41145); experiment: kappa opioid receptor blockers, cell-based, luminescence, beta-arrestin, SAR follow-up (AID 2285); format: functional
T2 sequence (P41145 whole entry): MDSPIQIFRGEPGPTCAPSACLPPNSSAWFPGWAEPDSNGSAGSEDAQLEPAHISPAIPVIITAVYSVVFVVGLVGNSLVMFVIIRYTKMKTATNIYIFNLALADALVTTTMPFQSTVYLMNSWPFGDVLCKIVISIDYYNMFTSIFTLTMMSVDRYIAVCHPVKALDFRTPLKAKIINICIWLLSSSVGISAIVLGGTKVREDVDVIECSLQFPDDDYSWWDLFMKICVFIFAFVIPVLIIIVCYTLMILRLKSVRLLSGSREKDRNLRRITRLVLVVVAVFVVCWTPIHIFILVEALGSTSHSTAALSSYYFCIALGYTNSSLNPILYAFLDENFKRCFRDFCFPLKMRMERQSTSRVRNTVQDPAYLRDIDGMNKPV

[5] = target: T3, Delta-type opioid receptor (Homo sapiens, UniProt P41143); experiment: DOR agonists, SAR follow-up, image-based (AID 2370); format: functional
T3 sequence (P41143 whole entry): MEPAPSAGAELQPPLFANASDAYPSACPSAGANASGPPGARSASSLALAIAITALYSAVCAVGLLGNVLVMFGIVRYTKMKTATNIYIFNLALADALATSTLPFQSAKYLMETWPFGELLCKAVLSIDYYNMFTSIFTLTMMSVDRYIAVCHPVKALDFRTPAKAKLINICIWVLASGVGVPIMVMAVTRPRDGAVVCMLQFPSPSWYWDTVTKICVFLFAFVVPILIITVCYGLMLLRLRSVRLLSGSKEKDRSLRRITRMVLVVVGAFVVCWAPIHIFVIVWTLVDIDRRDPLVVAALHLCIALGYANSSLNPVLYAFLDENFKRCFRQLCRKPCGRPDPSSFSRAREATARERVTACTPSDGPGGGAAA

[6] = target: T1, Mu-type opioid receptor; experiment: mu opioid receptor blockers – image-based, SAR follow-up (AID 2420); format: functional;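 further: compounds added before stimulation of receptor with agonist DAMGO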
[7] = target: T2, Kappa-type opioid receptor; experiment: kappa opioid receptor activation potency – imaging, image-based, SAR follow-up (AID 2359); format: functional
[8] = target: T2, Kappa-type opioid receptor; experiment: kappa opioid receptor blockers, image-based, SAR follow-up (AID 2348); format: functional
[9] = target: Tyrosine-protein phosphatase non-receptor type 7 (Homo sapiens, UniProt P35236); experiment: SAR analysis of chemical inhibitors of HePTP using a Fluorescent assay - Set 2. [Related pubchem assays (depositor defined):AID1059, AID1077, AID1661, AID2085, AID521]; format: functional
Chain of Tyrosine-protein phosphatase non-receptor type 7 (P35236 whole entry): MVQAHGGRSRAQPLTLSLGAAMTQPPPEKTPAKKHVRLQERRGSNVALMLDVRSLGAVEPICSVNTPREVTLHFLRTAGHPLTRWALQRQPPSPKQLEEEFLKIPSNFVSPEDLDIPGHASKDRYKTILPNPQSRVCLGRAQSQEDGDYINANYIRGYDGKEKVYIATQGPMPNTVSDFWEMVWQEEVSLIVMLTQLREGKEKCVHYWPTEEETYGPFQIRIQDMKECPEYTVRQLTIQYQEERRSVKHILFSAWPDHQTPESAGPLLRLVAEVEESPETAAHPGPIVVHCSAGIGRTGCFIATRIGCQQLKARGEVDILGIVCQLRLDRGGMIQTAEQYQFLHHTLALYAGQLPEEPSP

[10] = target: T3, Delta-type opioid receptor; experiment: delta opioid receptor blockers – image-based, SAR follow-up (AID 2357); format: functional
[11] = target: T4, Coagulation factor XII (Homo sapiens, UniProt P00748); experiment: Factor XIIa Dose Response Confirmation from Single Well HTS. [Related pubchem assays (depositor defined):AID701]; format: functional
T4 sequence (P00748 whole entry): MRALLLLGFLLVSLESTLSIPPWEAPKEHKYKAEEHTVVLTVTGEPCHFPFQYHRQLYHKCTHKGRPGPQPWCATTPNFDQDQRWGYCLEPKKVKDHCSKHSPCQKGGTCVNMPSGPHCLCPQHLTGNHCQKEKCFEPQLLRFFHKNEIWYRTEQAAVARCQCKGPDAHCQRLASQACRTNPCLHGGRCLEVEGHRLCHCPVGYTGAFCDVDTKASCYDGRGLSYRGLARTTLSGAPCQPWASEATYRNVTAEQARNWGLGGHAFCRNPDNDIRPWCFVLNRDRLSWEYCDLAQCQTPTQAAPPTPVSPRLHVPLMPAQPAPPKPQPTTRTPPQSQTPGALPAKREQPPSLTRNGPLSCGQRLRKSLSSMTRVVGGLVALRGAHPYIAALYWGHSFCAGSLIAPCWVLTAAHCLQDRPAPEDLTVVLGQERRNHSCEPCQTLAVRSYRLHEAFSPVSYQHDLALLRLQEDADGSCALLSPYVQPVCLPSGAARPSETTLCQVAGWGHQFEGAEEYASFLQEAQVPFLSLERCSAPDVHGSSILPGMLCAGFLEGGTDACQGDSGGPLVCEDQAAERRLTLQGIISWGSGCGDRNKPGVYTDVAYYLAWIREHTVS

[12] = Luminescence Cell-Based Dose Response HTS to Identify Activators of Luciferase Translation or Activity in H4 […] Cells. [Related pubchem assays: 1829 (Project Summary), 1814 (Primary HTS)]; format: functional
[13] = target: Troponin, cardiac muscle (Homo sapiens, UniProt P19429+P45379+P63316); experiment: Fluorescence-based biochemical high throughput dose response assay for activators of the calcium sensitivity of cardiac Regulated Thin Filaments (RTF). [Related pubchem assays (depositor defined):AID493008, AID493018, AID504382, AID504383]; format: protein-complex assay
[14] = compound autofluorescence in calcium buffer – biochemical, fluorescence, no RTF in test wells, artefact control for cardiac thin filament activator project, dose response (AID 504697)
[15] = system: Trypanosoma cruzi; experiment: anti-trypanosomal activity in host cells – cell-based, plate reader, dry powder, set 3, dose response (AID 493197); format: functional
[16] = Luminescence Cell-Based Secondary HTS screen to identify cytotoxic compounds of NIH3T3 cells. [Related pubchem assays: 1885, 1968 ]; format: functional
[17] = NIH3T3 cell viability loss – ATP luminescence, mouse fibroblasts, counter-screen, dose response (AID 2010); format: functional, cell-based;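 further: cells exposed to compound for about 90 hours before reading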
[18] = anti-trypanosomal activity in BESM host cells – imaging, CA-I/72 strain, bovine embryo skeletal muscle, dry powder, dose response (AID 651885); format: functional, cell-based
[19] = T. cruzi growth inhibition in host cells, dose response, cell-based, plate reader, dry powder, set 2 (AID 652275); format: functional
[20] = Luminescence Cell-Based/Microorganism Confirmation at Dose of Inhibitors of Trypanosoma cruzi Infection. [Related pubchem assays: 1885, 1968 ]; format: functional
[21] = T. cruzi infection blockers in NIH3T3 cells – beta-gal luminescence, NIH3T3 host cells, confirmation (AID 2630); format: functional, cell-based; conditions: Mus musculus
[22] = Trypanosoma cruzi growth suppression in host cells – NIH3T3 host cells, beta-gal luminescence, confirmation (AID 2044); format: functional, cell-based;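 further: intracellular parasites grown in NIH/3T3 mouse fibroblasts as host cells; luminescent beta-galactosidase reporter signal from transgenic T. cruzi replicating inside host cells; inhibitors lower the luminescence signal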
[23] = NIH/3T3 cell viability loss – mouse embryonic fibroblasts, dry powder, set 2, cytotoxicity control, dose response (AID 493247); format: functional, cell-based; conditions: Fibroblast
[24] = target: Signal transducer and activator of transcription 1-alpha/beta (Homo sapiens, UniProt P42224); experiment: STAT3 blockade with qPCR and toxicity readouts – cell-based, STAT1 panel, cytotoxicity, late-stage follow-up, panel member STAT1 Inhibition (AID 2078)
Chain of Signal transducer and activator of transcription 1-alpha/beta (P42224 whole entry): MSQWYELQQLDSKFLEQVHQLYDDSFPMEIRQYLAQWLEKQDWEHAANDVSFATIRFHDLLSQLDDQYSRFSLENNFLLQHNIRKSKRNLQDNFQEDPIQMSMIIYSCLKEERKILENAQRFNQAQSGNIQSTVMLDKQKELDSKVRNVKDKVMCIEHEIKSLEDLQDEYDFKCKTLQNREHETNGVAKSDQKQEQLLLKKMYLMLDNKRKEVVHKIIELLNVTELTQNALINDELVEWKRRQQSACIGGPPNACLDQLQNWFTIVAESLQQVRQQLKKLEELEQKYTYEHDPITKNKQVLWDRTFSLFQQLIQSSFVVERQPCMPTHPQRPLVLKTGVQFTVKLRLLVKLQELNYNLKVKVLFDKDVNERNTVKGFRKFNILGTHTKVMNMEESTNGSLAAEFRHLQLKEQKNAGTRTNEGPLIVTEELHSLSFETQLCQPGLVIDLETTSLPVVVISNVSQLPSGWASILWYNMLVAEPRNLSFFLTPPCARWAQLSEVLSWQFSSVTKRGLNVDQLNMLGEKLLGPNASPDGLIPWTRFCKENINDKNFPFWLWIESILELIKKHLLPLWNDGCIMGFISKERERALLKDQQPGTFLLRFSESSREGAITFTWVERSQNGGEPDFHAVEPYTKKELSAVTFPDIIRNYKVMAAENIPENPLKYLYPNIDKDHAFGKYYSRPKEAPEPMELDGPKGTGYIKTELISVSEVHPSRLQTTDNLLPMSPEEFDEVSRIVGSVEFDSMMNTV

[25] = target: Signal transducer and activator of transcription 3 (Homo sapiens, UniProt P40763); experiment: STAT3 blockade with qPCR and toxicity readouts – cell-based, STAT1 panel, cytotoxicity, late-stage follow-up, panel member STAT3 Inhibition (AID 2078)
Chain of Signal transducer and activator of transcription 3 (P40763 whole entry): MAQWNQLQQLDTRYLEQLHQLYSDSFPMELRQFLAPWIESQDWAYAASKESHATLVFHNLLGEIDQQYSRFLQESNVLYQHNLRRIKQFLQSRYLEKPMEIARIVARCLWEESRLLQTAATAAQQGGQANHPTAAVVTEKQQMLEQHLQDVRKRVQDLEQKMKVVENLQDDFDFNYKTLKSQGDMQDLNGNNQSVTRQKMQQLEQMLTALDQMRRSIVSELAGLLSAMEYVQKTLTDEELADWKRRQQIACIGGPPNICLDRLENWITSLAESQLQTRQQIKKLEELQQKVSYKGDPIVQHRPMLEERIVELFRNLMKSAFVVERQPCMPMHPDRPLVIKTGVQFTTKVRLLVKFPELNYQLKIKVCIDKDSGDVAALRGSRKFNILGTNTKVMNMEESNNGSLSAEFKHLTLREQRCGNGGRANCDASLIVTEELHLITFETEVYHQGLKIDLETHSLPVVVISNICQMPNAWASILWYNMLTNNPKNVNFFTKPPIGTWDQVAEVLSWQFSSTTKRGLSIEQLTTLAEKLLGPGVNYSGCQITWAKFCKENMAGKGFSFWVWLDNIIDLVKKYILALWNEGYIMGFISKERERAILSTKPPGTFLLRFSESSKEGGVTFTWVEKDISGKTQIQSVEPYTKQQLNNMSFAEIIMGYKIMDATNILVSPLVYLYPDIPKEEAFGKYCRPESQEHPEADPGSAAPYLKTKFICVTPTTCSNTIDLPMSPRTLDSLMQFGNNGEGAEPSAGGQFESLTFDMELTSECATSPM

Chain of Intestinal-type alkaline phosphatase (P09923 whole entry): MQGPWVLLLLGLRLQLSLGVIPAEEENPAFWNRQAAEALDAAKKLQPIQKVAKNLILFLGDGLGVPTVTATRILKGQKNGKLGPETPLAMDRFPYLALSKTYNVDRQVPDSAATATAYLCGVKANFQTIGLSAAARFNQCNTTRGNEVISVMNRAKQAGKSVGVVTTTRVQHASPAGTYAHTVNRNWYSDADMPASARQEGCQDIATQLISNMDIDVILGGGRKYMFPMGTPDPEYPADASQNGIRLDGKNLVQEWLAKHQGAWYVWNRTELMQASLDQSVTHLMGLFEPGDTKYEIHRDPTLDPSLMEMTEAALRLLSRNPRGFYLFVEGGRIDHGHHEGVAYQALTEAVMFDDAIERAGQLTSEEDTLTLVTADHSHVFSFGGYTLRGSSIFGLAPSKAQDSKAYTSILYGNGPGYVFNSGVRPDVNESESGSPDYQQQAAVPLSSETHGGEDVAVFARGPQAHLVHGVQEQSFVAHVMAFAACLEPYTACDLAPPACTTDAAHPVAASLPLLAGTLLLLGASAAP

EC50 [1]: 29.6 µM (active)
SMILES: Cc1ccc(Cl)cc1NC(=O)C(=O)N/N=C/c1ccc2c(c1)OCO2

SMILES: O=C(NC(NC(=S)Nc1ccccc1)C(Cl)(Cl)Cl)OCc1ccccc1 (stereo not given)
EC50 [2]: > 32 µM (inactive) | IC50 [3]: > 100 µM (inactive) | IC50 [4]: > 10 µM (inactive) | EC50 [5]: > 32 µM (inactive) | IC50 [6]: > 32 µM (inactive) | EC50 [7]: > 32 µM (inactive) | IC50 [8]: 17.6 µM (inactive) | IC50 [9]: > 100 µM (inactive) | IC50 [10]: > 32 µM (inactive)

IC50 [11]: > 50 µM (inactive)
SMILES: CC(/N=c1\ccccn1C(=O)Nc1cccc(C(F)(F)F)c1)c1ccco1 (stereo not given)

SMILES: N=c1oc2c3c4c(cc2cc1C(=O)Nc1ccccc1)CCCN4CCC3
EC50 [12]: 8.27 µM (active) | EC50 [13]: > 0.0109 µM (active) | EC50 [14]: > 0.0109 µM (active)

SMILES: COc1ccc(CCN(C)C(=O)C2CCCN(Cc3ccc(OC)c(OC)c3)C2)cc1OC (stereo not given)
AC50 [15]: 0.26 µM (active) | EC50 [16]: > 195 µM (not active) | EC50 [17]: > 60 µM (not active) | IC50 [18]: > 20 µM (inactive) | AC50 [19]: 0.252 µM (active) | EC50 [20]: 0.192 µM (active) | EC50 [21]: 0.192 µM (active) | EC50 [22]: < 0.1 µM (active) | AC50 [23]: 80.4 µM (active)

SMILES: Fc1ccc(CC2CCN(c3ncnc4sccc34)CC2)cc1
IC50 [24]: > 55.7 µM (inactive) | IC50 [25]: 2.54 µM (active)
